The results in this text go back to EP0428132A1, “Pradimicin derivatives” (Bristol-Myers Squibb Company, priority 1989, dated 1991).

One data set relates to FA21436. Kind of data set: In vitro antifungal activity, serial agar dilution method (Table 1). It is filed as cell-based, Asoergukkys flavus. As to conditions: for MIC: 40 h, pH 7, read-out: MIC, Asoergukkys flavus FA21436; for Partial Inhibition, Asoergukkys flavus FA21436: value in parentheses = Partial Inhibition, Sabouraud dextrose agar (pH 7.0), 28°C for 40 hours. As for the experimental part:
(§1) The inoculum size was adjusted to 10⁶ cells/ml, and a volume of approximately 0.003 ml of fungal suspension was applied to the surface of the antibiotic containing agar plates with a multiinoculator. After incubation, the lowest concentration of antibiotic causing virtually complete inhibition of fungal growth was determined as the minimum inhibitory concentration (MIC). Table 1. [table]
Background: In agar dilution, organisms are placed on agar that contains the substance at set levels.

For data set [1], the system named is Candida albicans A9540. Kind of data set: Intravenous Candida albicans infection mouse model, Table 2 part A. The format is in vivo. As to conditions: drug administered once just after infection, 20 days after fungal challenge, method of Litchfield and Wilcoxon, male ICR mice. Here is the method: Several compounds were also evaluated in an intravenous Candida albicans […] infection mouse model. The test organism was suspended in saline approximately 10 times the median lethal dose of the fungus (10⁶ cells/mouse) were used to infect intravenously male ICR mice weighing 20 to 24 g. Groups of five mice at each dose level were given the test compounds intravenously or intramuscularly. The 50% protective dose (PD₅₀) was calculated from survival rates recorded 20 or 21 days after the fungal challenge. Control animals died between 7 to 15 days.

The test system of data set [2] is Candida albicans A9540. Kind of data set: In vitro antifungal activity, serial agar dilution method (Table 1). As to conditions: Sabouraud dextrose agar (pH 7.0), 28°C for 40 hours; for MIC: Candida albicans, A9540. The format is cell-based. Here is the method:
as §1

In data set [3] the test system is Blastomyces dermatidis D40. The description is as above. The format is cell-based. As to conditions: for MIC: Blastomyces, D40, 40 h, pH 7, read-out: MIC, Blastomyces dermatidis D40; for Partial Inhibition, Blastomyces dermatidis D40: value in parentheses = Partial Inhibition, Sabouraud dextrose agar (pH 7.0), 28°C for 40 hours. As for the experimental part:
as §1

For a further data set, the system named is Candida albicans IAM4888. The data set is described as above. The format is cell-based. The note with it: Sabouraud dextrose agar (pH 7.0), 28°C for 40 hours; for MIC: Candida albicans, IAM4888. As for the experimental part: as §1
Data set [4] deals with Trichophyton mentagrophytes #4329. The description is as above. It is filed as cell-based. As to conditions: Sabouraud dextrose agar (pH 7.0), 28°C for 40 hours; for MIC: Trichophyton mentagrophytes. As for the experimental part: as §1
Data set [5] relates to Cryptococcus neoformans D49. Described as above. It is filed as cell-based. As to conditions: Cryptococcus neoformans, D49, 40 h, pH 7, read-out: MIC, Cryptococcus neoformans D49. As for the experimental part:
as §1

The subject of data set [6] is Cryptococcus neoformans IAM4514. The description is as above. It is filed as cell-based. The note with it: Cryptococcus neoformans, IAM4514; Sabouraud dextrose agar (pH 7.0); 28°C for 40 hours. Here is the method:
as §1

In data set [7] the test system is Aspergillus fumigatus IAM2530. The description is as above. It is filed as cell-based. The note with it: Sabouraud dextrose agar (pH 7.0), 28°C for 40 hours; for MIC: Aspergillus fumigatus, IAM2530. As for the experimental part:
as §1

In data set [8] the test system is Aspergillus fumigatus IAM2034. The data set is described as above. As to conditions: Sabouraud dextrose agar (pH 7.0), 28°C for 40 hours; for MIC: Aspergillus fumigatus, IAM2034; for Partial Inhibition, Aspergillus fumigatus IAM2034: value in parentheses = Partial Inhibition. It is filed as cell-based. Here is the method:
as §1

Data set [9] relates to Fusarium moniliforme A2284. The description is as above. As to conditions: Fusarium verticillioides, A2284; Sabouraud dextrose agar (pH 7.0); 28°C for 40 hours. The format is cell-based. As for the experimental part: as §1
A further data set concerns Mucor spinosus IFO5317. The description is as above. The format is cell-based. As to conditions: Sabouraud dextrose agar (pH 7.0), 28°C for 40 hours; for MIC: Mucor spinosus, IFO5317; for Partial Inhibition, Mucor spinosus IFO5317: value in parentheses = Partial Inhibition. Here is the method:
as §1

The test system of data set [10] is Sprotricosis schenckii IFO8158. The data set is described as above. The note with it: for MIC: 40 h, pH 7, read-out: MIC, Sprotricosis schenckii IFO8158; for Partial Inhibition, Sprotricosis schenckii IFO8158: value in parentheses = Partial Inhibition, Sabouraud dextrose agar (pH 7.0), 28°C for 40 hours. It is filed as cell-based. Here is the method:
as §1

In data set [11] the test system is Petriellidium boydii IFO8078. The description is as above. It is filed as cell-based. As to conditions: Scedosporium boydii, IFO8078; Sabouraud dextrose agar (pH 7.0); 28°C for 40 hours. As for the experimental part:
as §1

In data set [12] the test system is Trichophyton mentagrophytes D155. The data set is described as above. It is filed as cell-based. The note with it: Trichophyton mentagrophytes, D155; Sabouraud dextrose agar (pH 7.0); 28°C for 40 hours. As for the experimental part:
as §1

[13] abbreviates: value in parentheses = Partial Inhibition.

Converted amounts (≈) assume the structure as drawn. Some results are limits rather than exact numbers.

Description for physchem: The sample (3 ∼ 3.5 mg) was suspended in 1 ml of PBS(-) or PBS(+), sonicated at 30°C for 10 minutes, and allowed to stand at room temperature for 2 hours. The resulting solution or suspension was centrifuged at 12,000 rpm for 10 minutes. The supernatant (pH 6.7 ∼ 7.2) was diluted (5 x or 50 x) with 0.01N NaOH (pH ca. 11.5) and its UV absorption at 500 nm was measured. The solubility was assessed by the absorption coefficient value with reference to the standard. […] The zwitterionic form sample was used for the solubility test as it is. The hydrochloride salt sample (3 mg) was dissolved in 3 ml of distilled water and neutralized with 0.01N NaOH, and then the solution was lyophilized to give a test sample.
Dulbecco's phosphate buffered saline (PBS) solution was used. Preparation of PBS(-) solution: One PBS(-) tablet (Flow Laboratories, Cat. No. 28-103-05) was dissolved in 100 ml distilled water, and the solution was autoclaved for 10 minutes at 115°C. This solution contains 0.2 g/L of KCl, 0.2 g/L of KH₂PO₄, 8 g/L of NaCl, and 1.15 g/L of Na₂HPO₄. Preparation of PBS(+) solution: One PBS(-) tablet was dissolved in 80 ml distilled water; 10 mg of CaCl₂ was dissolved in 10 ml distilled water; 10 mg of MgCl₂, 6H₂O was dissolved in 10 ml distilled water. These solutions were separately autoclaved, as described above, and mixed when cooled.

`COc1cc(O)c2c(c1)C(=O)c1c(cc3c(c1O)-c1c(cc(C)c(C(=O)N[C@H](C)C(=O)O)c1O)[C@H](O[C@@H]1O[C@H](C)[C@H](N(C)CC(N)=O)[C@H](O[C@@H]4OC[C@@H](O)[C@H](O)[C@H]4O)[C@H]1O)[C@H]3O)C2=O` [Ex. 2, N-(carbamoylmethyl) pradimicin A]: the MIC (usually the smallest concentration in the dilution series that meets the test's criterion for growth inhibition) in the data set with FA21436 was greater than 100 µg/mL; in the data set with Candida albicans A9540 [2] it was 50 µg/mL (≈ 55.7 µM); in data set [3] it was 25 µg/mL (≈ 27.8 µM); with Candida albicans IAM4888, 25 µg/mL (≈ 27.8 µM); in [4] it was greater than 100 µg/mL; in data set [5], 12.5 µg/mL (≈ 13.9 µM). In addition, the MIC is 3.1 µg/mL (≈ 3.45 µM) in data set [6]; 12.5 µg/mL (≈ 13.9 µM) in [7]; greater than 100 µg/mL in [8]; greater than 100 µg/mL in data set [9]; greater than 100 µg/mL in the data set with Mucor spinosus IFO5317; 25 µg/mL (≈ 27.8 µM) in data set [10]. Moreover, the MIC in [11] and in data set [12] was greater than 100 µg/mL each time. For the same molecule, the “Partial Inhibition, Asoergukkys flavus FA21436” value with FA21436 was determined as 50.0 µg/mL. Further, the PD₅₀ in the data set with Candida albicans A9540 [1] was 29 mg/kg. Also, the solubility (in general, the dissolved amount per volume that the medium holds) at 2 h in the data set “physchem” (Method II (-): PBS(-)) was determined as 11000 µg/mL (≈ 12300 µM). Moreover, in data set [3], the “Partial Inhibition, Blastomyces dermatidis D40” value came to 12.5 µg/mL. Further, the “Partial Inhibition, Aspergillus fumigatus IAM2034” value in data set [8] was found to be 50.0 µg/mL. In addition, in the data set on Mucor spinosus IFO5317, the “Partial Inhibition, Mucor spinosus IFO5317” value is listed as >100.0 (100.0) µg/ml. For the same molecule, the “Partial Inhibition, Sprotricosis schenckii IFO8158” value in [10] stood at 12.5 µg/mL.

Take `CCOC(=O)CN(C)[C@@H]1[C@H](O[C@@H]2OC[C@@H](O)[C@H](O)[C@H]2O)[C@@H](O)[C@H](O[C@H]2c3cc(C)c(C(=O)N[C@H](C)C(=O)O)c(O)c3-c3c(cc4c(c3O)C(=O)c3cc(OC)cc(O)c3C4=O)[C@@H]2O)O[C@@H]1C` [Ex. 3, N-(ethoxycarbonylmethyl) pradimicin A]: the MIC is greater than 100 µg/mL with FA21436; 50 µg/mL (≈ 53.9 µM) in the data set with Candida albicans A9540 [2]; 100 µg/mL (≈ 108 µM) in data set [3]; 25 µg/mL (≈ 27 µM) in the data set on Candida albicans IAM4888; greater than 100 µg/mL in [4]; 6.3 µg/mL (≈ 6.8 µM) in [5]. Further, the minimal inhibitory concentration (MIC) is 6.3 µg/mL (≈ 6.8 µM) in [6]; 50 µg/mL (≈ 53.9 µM) in data set [7]; greater than 100 µg/mL in data set [8]; greater than 100 µg/mL in data set [9]; greater than 100 µg/mL against Mucor spinosus IFO5317; 25 µg/mL (≈ 27 µM) in [10]. Moreover, the MIC in [11] and in data set [12] was greater than 100 µg/mL in each case. Moreover, in the data set on FA21436, the “Partial Inhibition, Asoergukkys flavus FA21436” value is 50.0 µg/mL. This molecule also yielded a PD₅₀ with Candida albicans A9540 [1] of 18 mg/kg. This molecule came in with a solubility at 2 h in “physchem” (Method II (-): PBS(-)) of 11000 µg/mL (≈ 11900 µM). Besides, in [3], the “Partial Inhibition, Blastomyces dermatidis D40” value amounted to 12.5 µg/mL. Further, the “Partial Inhibition, Aspergillus fumigatus IAM2530” value in data set [7] (setting [13]) turned out to be 25.0 µg/mL. In addition, the “Partial Inhibition, Aspergillus fumigatus IAM2034” value in data set [8] is reported as >100.0 (100.0) µg/ml. The “Partial Inhibition, Mucor spinosus IFO5317” value in the data set on Mucor spinosus IFO5317 was >100.0 (100.0) µg/ml. In addition, the “Partial Inhibition, Sprotricosis schenckii IFO8158” value in [10] was found to be 12.5 µg/mL.

As for `COc1cc(O)c2c(c1)C(=O)c1c(cc3c(c1O)-c1c(cc(C)c(C(=O)N[C@H](C)C(=O)O)c1O)[C@H](O[C@@H]1O[C@H](C)[C@H](NCS(=O)(=O)O)[C@H](O[C@@H]4OC[C@@H](O)[C@H](O)[C@H]4O)[C@H]1O)[C@H]3O)C2=O` [Ex. 7, N-(sodiosulfomethyl) pradimicin C], the MIC was greater than 50 µg/mL in the data set with FA21436; 3.1 µg/mL (≈ 3.37 µM) with Candida albicans A9540 [2]; 3.1 µg/mL (≈ 3.37 µM) in data set [3]; 3.1 µg/mL (≈ 3.37 µM) against Candida albicans IAM4888; 25 µg/mL (≈ 27.1 µM) in data set [4]; 0.4 µg/mL (≈ 0.434 µM) in data set [5]. Besides, the MIC in data set [6] is 0.4 µg/mL (≈ 0.434 µM); in data set [7], 3.1 µg/mL (≈ 3.37 µM); in [8] it was greater than 50 µg/mL; in data set [9], greater than 50 µg/mL; against Mucor spinosus IFO5317, greater than 50 µg/mL; in [10], 1.6 µg/mL (≈ 1.74 µM). The MIC in data set [11] is greater than 50 µg/mL; in data set [12] it was 50 µg/mL (≈ 54.3 µM). For the same molecule, the “Partial Inhibition, Asoergukkys flavus FA21436” value with FA21436 stood at 3.1 µg/mL. This molecule came in with a PD₅₀ in the data set on Candida albicans A9540 [1] of 7.2 mg/kg. Further, the concentration in solution in the data set “physchem” (Method II (-): PBS(-)) (solubility at 2 h) was 3 µg/mL (≈ 3.26 µM). The “Partial Inhibition, Trichophyton mentagrophytes #4329” value in [4] (setting [13]) came to 3.1 µg/mL.

In the case of `COc1cc(O)c2c(c1)C(=O)c1c(cc3c(c1O)-c1c(cc(C)c(C(=O)N[C@H](C)C(=O)O)c1O)[C@H](O[C@@H]1O[C@H](C)[C@H](N(C)C(=O)CCN)[C@H](O[C@@H]4OC[C@@H](O)[C@H](O)[C@H]4O)[C@H]1O)[C@H]3O)C2=O` [Ex. 11, N-(β-alanyl) pradimicin A], the MIC with FA21436 is greater than 100 µg/mL; against Candida albicans A9540 [2], 12.5 µg/mL (≈ 13.7 µM); in data set [3], 12.5 µg/mL (≈ 13.7 µM); in the data set on Candida albicans IAM4888, 12.5 µg/mL (≈ 13.7 µM); in [4], 100 µg/mL (≈ 110 µM); in data set [5], 1.6 µg/mL (≈ 1.75 µM). In addition, the MIC in data set [6] is 1.6 µg/mL (≈ 1.75 µM); in [7], 50 µg/mL (≈ 54.8 µM); in data set [8], 100 µg/mL (≈ 110 µM); in data set [9], greater than 100 µg/mL; in the data set on Mucor spinosus IFO5317, greater than 100 µg/mL; in [10] it was 6.3 µg/mL (≈ 6.91 µM). Further, the MIC in [11] was greater than 100 µg/mL; in data set [12] it was 100 µg/mL (≈ 110 µM). In addition, the “Partial Inhibition, Asoergukkys flavus FA21436” value with FA21436 is recorded as >100.0 (100.0) µg/ml. The PD₅₀ in the data set with Candida albicans A9540 [1] is listed as 36 mg/kg. In the data set “physchem” (Method II (+): PBS(+)), this molecule showed a solubility at 2 h of 250 µg/mL (≈ 274 µM). The “Partial Inhibition, Candida albicans A9540” value with Candida albicans A9540 [2] (setting [13]) amounted to 6.3 µg/mL. Moreover, the “Partial Inhibition, Candida albicans IAM4888” value with Candida albicans IAM4888 (setting [13]) turned out to be 6.3 µg/mL. Moreover, the “Partial Inhibition, Mucor spinosus IFO5317” value in the data set with Mucor spinosus IFO5317 was 25.0 µg/mL.
